Measured values from US7521447B2, “P38 inhibitors and methods of use thereof” (Array Biopharma Inc., priority 2003, dated 2009).

How the values were obtained:
activated p38α enzyme = activated p38α enzyme (Homo sapiens, UniProt Q16539); assay: p38 Biochemical Assay; parameters: key: An “active” compound is defined as a compound having an IC50 below 500 nM; details: 5 nM activated p38α, 1 uM ATF-2 substrate, 10 μM ATP
Experimental: P38 activity was assayed at room temperature in a 100 μl reaction containing 5 nM activated p38α enzyme and 1 uM ATF-2 (Activating Transcription Factor 2 fusion protein) as the substrate in 25 mM HEPES (pH 7.4), 100 μM Vanadate, 1 mM DTT, 10 mM MgCl2 and 10 μM [[…]-^33P]-ATP (˜0.1 μCi P^33/reaction). The reaction was terminated after 30-40 minutes by adding 25% TCA, let stand for 5 minutes and then transferred directly to a GF-B membrane filter plate. The filter was washed twice for 30 seconds with 0.5% phosphoric acid using a Tomtec Mach III Automated Harvestor. After washing, the vacuum was continued for 30 seconds to dry the filter. Approximately 30 μl of scintillant was added per well to the filter plate and then read in a Liquid Scintillation Counter (Packard TopCount HTS).

[1] = test system: LPS-induced TNF-α secretion from human peripheral blood mononuclear cells (PBMC); assay: PBMC Assay: inhibition of LPS-induced TNF-α secretion; assay type: cell-based; parameters: key: An “active” compound is defined as a compound having an IC50 below 500 nM; details: LPS-stimulated human PBMC, TNF-α ELISA
Experimental: The ability of compounds of this invention to inhibit TNF-α production was assessed by using human peripheral blood mononuclear cells (“PBMC”) which synthesize and secrete TNF-α when stimulated with lipopolysaccharide.
Compound test solutions were made by making 5 fold serial dilutions in DMSO, which dilutions were then diluted to 5× stocks by diluting with MEM, 2% heat inactivated fetal bovine serum (“FBS”), 20 mM HEPES, 2 mM L-glutamine, and 1% penicillin/streptomycin.
PBMC's were isolated from human blood as follows. Whole blood samples were collected from human volunteers into Vacutainer™ CPT from Becton Dickinson. Tubes were mixed and centrifuged at room temperature (18-25° C.) in a horizontal rotor for a minimum of 15 minutes at 1500-1800 RCF (relative centrifugal force). For each donor, the buffy coat layers were pooled into a single tube and washed twice with phosphate buffered saline (“PBS”). The cell pellet was resuspended in MEM, 2% heat inactivated fetal bovine serum (“FBS”), 20 mM HEPES, 2 mM L-glutamine, and 1% penicillin/streptomycin. Total cell number was determined using a hemocytometer and the cell suspension was adjusted to 2×10^6 cells/mL.
0.1 mL of cell suspension was added to each well of a 96-well cell culture plate. 30 μL of a compound test solution was added, and the cells were incubated in a 37° C./5% CO2 incubator for 1 hour. 20 μL of 7.5 ng/mL lipopolysaccharide (LPS E. Coli K-235) was then added to each well, and the cells were returned to the 37° C./5% CO2 incubator for 16-20 hours. The cells were centrifuged for 15 minutes at 1100 RCF. Approximately 0.12 mL of the supernatant was transferred into a clean 96 well polypropylene plate. The samples were either assayed immediately or were stored at −80° C. until ready for assay. TNF-α levels were determined in each sample using a human TNF-α ELISA assay such as that described below.
TNF-α levels were determined using the following assay. TNF-alpha antibody coated plates were prepared by adding 150 μL of 2 μg/mL anti-TNF-α purified mouse monoclonal IgG in Carbonate-Bicarbonate buffer (BupH™ Carbonate-Bicarbonate Buffer Pack) to wells of a 96-well Immulon 4 plate (Immulon 4 ELISA Flat Bottom Plate; Dynex, catalog number 011-010-3855) and incubated overnight at 2-8° C. Coating solution was removed and 200 μL of “blocking buffer” (20 mM HEPES pH 7.4, 150 mM NaCl, 2% BSA) was added and plates were stored 2-8° C. until ready to use. A ten-point recombinant human TNF-α standard curve was prepared by a 1:2 serial dilution in “sample diluent” (20 mM HEPES, pH 7.4, 150 mM NaCl, 2 mM MgCl2, 1% BSA) with a top concentration of 6000 pg/mL.
Blocking solution was removed from TNF-α ELISA plates by washing five times with 300 μL of “wash buffer” (20 mM HEPES, pH 7.4, 150 mM NaCl, 2 mM MgCl2, 0.02% Tween-20). 50 μL of “sample diluent” was added to all wells, and then either 50 μL of a TNF-α standard curve solution or test compound supernatant was added to all wells. The plate was incubated at room temperature for one hour with shaking (300 rpm). The plate was washed wash five times with 300 μL “wash buffer”. 100 μL of 0.2 μg/mL biotinylated goat anti-human TNF-α in “antibody diluent” (20 mM HEPES, pH 7.4, 150 mM NaCl, 2 mM MgCl2, 1% BSA, 0.02% Tween-20) was added per well, and the plate was incubated at room temperature for one hour with shaking (300 rpm). The plate was washed wash five times with 300 μL “wash buffer” per well. 100 μL of 0.02 μg/mL streptavidin alkaline phosphatase in “antibody diluent” was added per well, and the plate was incubated at room temperature for one hour with shaking (300 rpm). The plate was washed wash five times with 300 μL wash buffer per well. 200 μL of 1 mg/mL pNPP (p-nitrophenyl phosphate) in diethanolamine buffer with 0.5 mM MgCl2 was added per well, and the plate was incubated for 30 to 45 minutes at room temperature with shaking (300 rpm). […]

Chain of activated p38α enzyme (Q16539 whole entry, the tested form may be a part): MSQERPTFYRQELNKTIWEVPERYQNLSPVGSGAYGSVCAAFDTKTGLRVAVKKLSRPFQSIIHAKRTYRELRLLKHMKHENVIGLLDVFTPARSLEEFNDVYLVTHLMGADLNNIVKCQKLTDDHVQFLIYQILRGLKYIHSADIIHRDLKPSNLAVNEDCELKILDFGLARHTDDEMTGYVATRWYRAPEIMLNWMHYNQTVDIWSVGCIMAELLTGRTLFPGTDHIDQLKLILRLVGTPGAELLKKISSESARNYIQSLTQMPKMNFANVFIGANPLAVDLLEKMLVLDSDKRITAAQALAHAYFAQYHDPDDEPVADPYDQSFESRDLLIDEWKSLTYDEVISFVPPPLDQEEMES

SMILES | p38 Inhibition IC50 (nM) (activated p38α enzyme) | PBMC IC50 (nM) [1]
CC(C)Cn1ncc2cc(C(O)c3ccc(F)cc3F)ccc21 (stereo not drawn) [Compound 4f-1, (2,4-difluorophenyl)-(1-isobutyl-1H-indazol-5-yl)-methanol] | active | active
CC(C)Cn1ncc2cc(C(O)c3ccc(F)cc3)ccc21 (stereo not drawn) [Compound 4f-2, (4-fluorophenyl)-(1-isobutyl-1H-indazol-5-yl)-methanol] | active | active
CC(C)Cn1ncc2cc(C(O)c3ccc(Cl)cc3Cl)ccc21 (stereo not drawn) [Compound 4f-9, (2,4-dichlorophenyl)-(1-isobutyl-1H-indazol-5-yl)-methanol] | active | inactive
CC(C)Cn1ncc2cc(C(=O)c3ccc(F)cc3F)ccc21 [Compound 5f-1, (2,4-difluorophenyl)-(1-isobutyl-1H-indazol-5-yl)-methanone] | active | active
CC(C)Cn1ncc2cc(C(=O)c3ccc(F)cc3)ccc21 [Compound 5f-2, (4-fluorophenyl)-(1-isobutyl-1H-indazol-5-yl)-methanone] | active | active
CC(C)Cn1ncc2cc(C(=O)c3ccc(Cl)cc3F)ccc21 [Compound 5f-7, (4-chloro-2-fluorophenyl)-(1-isobutyl-1H-indazol-5-yl)-methanone] | active | active
CC(C)Cn1ncc2cc(C(=O)c3ccc(Cl)cc3Cl)ccc21 [Compound 5f-9, (2,4-dichlorophenyl)-(1-isobutyl-1H-indazol-5-yl)-methanone] | active | active
Cc1ccccc1C(=O)c1ccc2c(cnn2CC(C)C)c1 [Compound 5f-10, (1-isobutyl-1H-indazol-5-yl)-O-tolyl-methanone] | active | active
CC(C)Cn1ncc2cc(C(=NO)c3ccc(F)cc3F)ccc21 [Compound 7f-1, (2,4-difluorophenyl)-(1-isobutyl-1H-indazol-5-yl)-methanone oxime] | active | active
CC(C)Cn1ncc2cc(C(=NO)c3ccc(F)cc3)ccc21 [Compound 7f-2, (4-fluorophenyl)-(1-isobutyl-1H-indazol-5-yl)-methanone oxime] | active | active
CCON=C(c1ccc2c(cnn2CC(C)C)c1)c1ccc(F)cc1F [Compound 7f-3, (2,4-difluorophenyl)-(1-isobutyl-1H-indazol-5-yl)-methanone O-ethyl-oxime] | active | active
CC(C)Cn1ncc2cc(Oc3ccc(F)cc3)c(C(=O)NCCN(C)C)cc21 [Compound 11g-10, 5-(4-fluorophenoxy)-1-isobutyl-1H-indazole-6-carboxylic acid (2-dimethylaminoethyl)-amide] | active | active
